Data reported in PubChem BioAssay AID2060600 (Molecular Pharmacology Branch, DTP, NCI, 2025).
pIC50: −log10 of the molar value. Where “and” joins values, the source holds several entries; their conditions need not be identical. Equal entries are not always repeated.

Test system: 996289-038-R-J1-PDC complex spheroid viability
Assay: Anticancer human tumor 996289-038-R-J1-PDC patient-derived colon adenocarcinoma cell line growth inhibition [CLK]
Settings: for viability, T/C: stronger effect = lower value
Text: A high-throughput screen of multi-cell type tumor spheroids was designed to identify active combinations of […] and targeted small molecules. Complex spheroids include a stromal component modeled by human endothelial cells (HUVEC) and fibroblasts modeled by human mesenchymal stem cells (MSCs). The concentration ranges selected for each drug and investigational agent were based upon clinically achievable concentrations if the clinical Cmax of the agent was known.
Compounds. The drugs and investigational agents: cirtuvivint (SM08502; NSC835563), CC-671 (NSC850746), vemurafenib (NSC761431), tapotoclax (NSC804041), sotorasib (NSC818433), adagrasib (NSC831453), MRTX-1133 (NSC836407), BAY2416964 (NSC825713), copanlisib (NSC816437), inavolisib (NSC800729), abemaciclib (NSC768073), osimertinib (NSC779217), entinostat (NSC756642), eltanexor (KPT-8602, NSC794443), venetoclax (NSC766270), ceralasertib (NSC777638), bortezomib (NSC756655), olaparib (NSC753686), talazoparib (NSC767125), alisertib (NSC759677), peposertib (NSC802822), gemcitabine (NSC613327), 5-fluorouracil (NSC19893), SN-38 (NSC673596), oxaliplatin (NSC266046), paclitaxel (NSC125973), and doxorubicin (NSC123127), were obtained from the National Cancer Institute (NCI) Developmental Therapeutics Program Chemical Repository. The FDA-approved anticancer drug set is available from the Developmental Therapeutics Program at https://dtp.cancer.gov/organization/dscb/obtaining/available plates.htm. […] The stock solutions were prepared in dimethyl sulfoxide (DMSO, Sigma-Aldrich, St. Louis, MO, cat. D2650), except for the platinum complexes which were prepared in saline (Quality Biological, Gaithersburg, MD, cat. 114-055-101), at 800-fold the tested concentration and stored at -70 degrees C prior to their use. All drugs and investigational agents were tested over a range starting from a high concentration at or near the clinical Cmax and decreasing in half-log increments. If the clinical Cmax for an agent had not been determined, the highest concentration tested was 10 microM.
Cell Culture. All cells were maintained in an incubator at 37 degrees C and 5% CO2 with 95% humidity. The PDC lines were cultured according to standard operating procedures established by the NCI PDMR. Briefly, all PDCs were thawed and cultured in Matrigel-coated flasks prepared with a working solution of 1X Ham's F-12 nutrient mix, without supplementation (Invitrogen, Waltham, MA, cat. 11765054), 100 U/mL penicillin-streptomycin (Invitrogen, cat. 15140122), and 2.5% Matrigel (Corning Inc., Corning, NY, cat. 354248) for the first three passages. The 947758-054-R-J2-PDC line was cultured in 6B/Colon 1A media, which includes advanced DMEM/F-12 (Thermo Fisher Scientific, cat. 12634028), 10 mM HEPES (Thermo Fisher Scientific, cat. 15630080), 1X GlutaMAX supplement (Thermo Fisher Scientific, cat. 35050061), 0.1 mg/mL primocin (InvivoGen, cat. ant-pm-2), 10% defined fetal bovine serum, heat inactivated (HyClone Laboratories Inc., cat. SH30070.03HI), 1.25 mM N-Acetyl-L-cysteine (Sigma-Aldrich, cat. A9165), 10 mM nicotinamide (Sigma-Aldrich, cat. N0636), 1X B-27 supplement (Thermo Fisher Scientific, cat. 17504044), 1X N-2 supplement (Thermo Fisher Scientific, cat. 17502048), and 10 microM Y-27632 dihydrochloride (Tocris Bioscience, cat. 1254). The 876862-298-R-J1-PDC was cultured in 6E media, which includes all 6B/Colon 1A media components plus 50% L-WRN conditioned media (ATCC, cat. CRL-3276), 50 ng/mL recombinant human EGF recombinant protein (hEGF; Thermo Fisher Scientific, cat. PHG0311), 10 ng/mL recombinant human fibroblast growth factor 10 (hGFG-10; PeproTech, cat. 100-26), 1 ng/mL recombinant human fibroblast growth factor 2 (hFGF-2; PeproTech, cat. 100-18B), and 1 µM prostaglandin E2 (PGE2; Tocris, cat. 2296). The 227483-062-R1-J1-PDC line was cultured in Panc media, containing all 6E components except hFGF-2, with the addition of 500 nM SB-431542 (Selleckchem, cat. S1067) and 10 nM gastrin (Tocris, cat. 3006). […]
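Also: spheroids exposed to the agents for 7 days before readout.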

SMILES: CC(=O)O[C@H]1C(=O)[C@@]2(C)[C@H]([C@H](OC(=O)c3ccccc3)[C@]3(O)C[C@H](OC(=O)[C@H](O)[C@@H](NC(=O)c4ccccc4)c4ccccc4)C(C)=C1C3(C)C)[C@]1(OC(C)=O)CO[C@@H]1C[C@@H]2O
- viability, T/C (compound 0.0316 µM): 94.2% and 106%
- viability, T/C (compound 0.1 µM): 85.8% and 89.7%
- viability, T/C (compound 0.316 µM): 68.7% and 72.4%
- viability, T/C (compound 1 µM): 59.8% and 63.7%
- viability, T/C (compound 3.16 µM): 58.6% and 73%
- viability, T/C (compound 10 µM): 61.5% and 67.2%
- pIC50 (curve of compound): < 5.00

SMILES: COc1ccc([C@@H](O)c2cc(-c3ncnc4cc(N5CCOCC5)ccc34)c(F)cc2Cl)nn1
- viability, T/C (compound 0.0316 µM): 102%
- viability, T/C (compound 0.1 µM): 92.7% and 88.9%
- viability, T/C (compound 0.316 µM): 101% and 90.7%
- viability, T/C (compound 1 µM): 93.3% and 87.7%
- viability, T/C (compound 3.16 µM): 77.5% and 79.5%
- viability, T/C (compound 10 µM): 50.1% and 52.1%
- pIC50 (curve of compound): < 5.00

SMILES: COc1cccc2c1C(=O)c1c(O)c3c(c(O)c1C2=O)CC(O)(C(=O)CO)CC3OC1CC(N)C(O)C(C)O1 (stereo not drawn)
- viability, T/C (compound 0.0316 µM): 100% and 103%
- viability, T/C (compound 0.1 µM): 87.1% and 86.2%
- viability, T/C (compound 0.316 µM): 76.5% and 79.6%
- viability, T/C (compound 1 µM): 59.4% and 62.6%
- viability, T/C (compound 3.16 µM): 49% and 51.9%
- viability, T/C (compound 10 µM): 35.5% and 36.7%
- pIC50 (curve of compound): 5.58 and 5.48

SMILES: C=CC(=O)N1CCN(c2nc(=O)n(-c3c(C)ccnc3C(C)C)c3nc(-c4c(O)cccc4F)c(F)cc23)C(C)C1 (stereo not drawn) + CN1CCN(c2cc(C(=O)Nc3cc4cc(-c5cnn(C)c5)ccc4cn3)ccn2)CC1
- pIC50 (curve of first compound, second compound 0.0316 µM): < 5.00
- pIC50 (curve of first compound, second compound 0.1 µM): < 5.00
- pIC50 (curve of first compound, second compound 0.316 µM): < 5.00
- pIC50 (curve of first compound, second compound 1 µM): > 7.50
- pIC50 (curve of first compound, second compound 3.16 µM): > 7.50
- pIC50 (curve of first compound, second compound 10 µM): > 7.50
- viability, T/C (second compound 0.0316 µM, first compound 0.0316 µM): 112%
- viability, T/C (second compound 0.0316 µM, first compound 0.1 µM): 111%
- viability, T/C (second compound 0.0316 µM, first compound 0.316 µM): 111%
- viability, T/C (second compound 0.0316 µM, first compound 1 µM): 104%
- viability, T/C (second compound 0.0316 µM, first compound 3.16 µM): 114%
- viability, T/C (second compound 0.0316 µM, first compound 10 µM): 109%
- viability, T/C (second compound 0.1 µM, first compound 0.0316 µM): 97.5%
- viability, T/C (second compound 0.1 µM, first compound 0.1 µM): 102%
- viability, T/C (second compound 0.1 µM, first compound 0.316 µM): 91.6%
- viability, T/C (second compound 0.1 µM, first compound 1 µM): 103%
- viability, T/C (second compound 0.1 µM, first compound 3.16 µM): 102%
- viability, T/C (second compound 0.1 µM, first compound 10 µM): 99.3%
- viability, T/C (second compound 0.316 µM, first compound 0.0316 µM): 80.5%
- viability, T/C (second compound 0.316 µM, first compound 0.1 µM): 73.1%
- viability, T/C (second compound 0.316 µM, first compound 0.316 µM): 74.2%
- viability, T/C (second compound 0.316 µM, first compound 1 µM): 82.5%
- viability, T/C (second compound 0.316 µM, first compound 3.16 µM): 85.3%
- viability, T/C (second compound 0.316 µM, first compound 10 µM): 77.7%
- viability, T/C (second compound 1 µM, first compound 0.0316 µM): 8.05%
- viability, T/C (second compound 1 µM, first compound 0.1 µM): 7.07%
- viability, T/C (second compound 1 µM, first compound 0.316 µM): 9.28%
- viability, T/C (second compound 1 µM, first compound 1 µM): 8.41%
- viability, T/C (second compound 1 µM, first compound 3.16 µM): 10.3%
- viability, T/C (second compound 1 µM, first compound 10 µM): 6.56%
- viability, T/C (second compound 3.16 µM, first compound 0.0316 µM): 1.21%
- viability, T/C (second compound 3.16 µM, first compound 0.1 µM): 1.63%
- viability, T/C (second compound 3.16 µM, first compound 0.316 µM): 1%
- viability, T/C (second compound 3.16 µM, first compound 1 µM): 1.24%
- viability, T/C (second compound 3.16 µM, first compound 3.16 µM): 1.69%
- viability, T/C (second compound 3.16 µM, first compound 10 µM): 1.89%
- viability, T/C (second compound 10 µM, first compound 0.0316 µM): 0.33%
- viability, T/C (second compound 10 µM, first compound 0.1 µM): 1.03%
- viability, T/C (second compound 10 µM, first compound 0.316 µM): 0.3%
- viability, T/C (second compound 10 µM, first compound 1 µM): 0.75%
- viability, T/C (second compound 10 µM, first compound 3.16 µM): 0.42%
- viability, T/C (second compound 10 µM, first compound 10 µM): 1.33%
